Results on 1 compound are retold here after patent US9765034B2, “5-halogenopyrazole biphenylcarboxamides” (BAYER CROPSCIENCE AG, priority 2012, dated 2017).

In one data set the test system is Botrytis cinerea. In words: In vivo preventive test on Botrytis cinerea (grey mould). The note with it: gherkin plants, preventive spray, 500 ppm, grading 4 to 5 days after contamination. In a few lines: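 Sprayed gherkin plants (“Vert petit de Paris”) at Z11 cotyledon stage, grown at 24° C, inoculated 24 h later with Botrytis cinerea spores (50 000 spores per ml) in nutrient solution. Efficacy graded 4 to 5 days post-inoculation as % versus solvent-treated controls.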

The next data set concerns Pyrenophora teres. In words: In vivo preventive test on Pyrenophora teres (net blotch on barley). The following applies: barley plants, preventive spray, 500 ppm, grading 14 days after contamination. In a few lines: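 Barley (Plaisant) at the 1-leaf stage was sprayed with compound, then inoculated 24 h later with P. teres spores (12 000 spores per ml). Solvent-only plants served as controls. Efficacy (%) versus controls was graded 14 days after contamination.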

The subject of the next data set is Pyricularia oryzae. It is filed as in vivo. The note with it: rice plants, preventive spray, 500 ppm, grading 6 days after contamination.
In a further data set the test system is Puccinia recondita. Put plainly: In vivo preventive test on Puccinia recondita (brown rust on wheat). The note with it: wheat plants, preventive spray, 500 ppm, grading 12 days after contamination. The method, boiled down:
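Wheat (Scipion) at the 1-leaf stage, grown at 22 °C, was sprayed preventively with compound; solvent-treated plants served as controls. After 24 h, leaves were inoculated with Puccinia spores (100 000/ml). Percent efficacy versus controls was graded 12 days post-inoculation.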

Another data set concerns Sphaerotheca fuliginea. In words: In vivo preventive test on Sphaerotheca fuliginea (powdery mildew on cucurbits). The following applies: gherkin plants, preventive spray, 500 ppm, grading 12 days after contamination. In a few lines:
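Gherkin plants grown at 24 °C sprayed with compound at the Z11 cotyledon stage, then inoculated 24 h later with Sphaerotheca fuliginea spores (100 000 spores per ml). Percent efficacy graded 12 days post-inoculation against solvent-treated controls; tested dose 500 ppm.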

Another data set deals with Uromyces appendiculatus. In words: In vivo preventive test on Uromyces appendiculatus (bean rust). The note with it: bean plants, preventive spray, 500 ppm, grading 11 days after contamination. In a few lines: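 Saxa bean plants grown at 24° C were sprayed at the 2-leaf stage, then inoculated 24 h later with U. appendiculatus spores (150 000 spores per ml). Untreated controls got the acetone/tween/DMSO/water mix only. % efficacy was graded 11 days post-inoculation relative to controls, at 500 ppm.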

Data set [1] relates to Blumeria graminis fsp. hordei. In words: In vivo Blumeria test (barley)/preventive. The following applies: preventive, 500 ppm of active ingredient, evaluated 7 days after inoculation. How it is done:
(§1) Example: In Vivo Blumeria Test (Barley)/Preventive Solvent: 49 parts by weight of N,N-dimethylacetamide Emulsifier: 1 part by weight of alkylaryl polyglycol ether To produce a suitable preparation of active compound, 1 part by weight of active compound or active compound combination is mixed with the stated amounts of solvent and emulsifier, and the concentrate is diluted with water to the desired concentration. To test for preventive activity, young plants are sprayed with the preparation of active compound or active compound combination at the stated rate of application. After the spray coating has been dried, the plants are dusted with spores of Blumeria graminis fsp. hordei.

For a further data set, the system named is Leptosphaeria nodorum. In words: In vivo Leptosphaeria nodorum test (wheat)/preventive. The following applies: preventive, 500 ppm of active ingredient, evaluated 8 days after inoculation. How it is done:
as §1, with “Leptosphaeria nodorum” for “Blumeria”, “(Wheat)/Preventive” for “(Barley)/Preventive”, “sprayed” for “dusted”, “a spore suspension” for “spores”, “Leptosphaeria nodorum.” for “Blumeria graminis fsp. hordei.”

Data set [2] in a line: logP by HPLC on reversed phase columns (EEC directive 79/831 Annex V.A8). The note with it: method [a]: LC-MS at pH 2.7, 0.1% formic acid in water / acetonitrile gradient 10% to 95%.

As to `CCON=Cc1ccc(-c2ccccc2NC(=O)c2c(C(F)F)nn(C)c2F)cc1` [Example 7], the Eff. % in the data set on Botrytis cinerea was determined as 85%; in the data set on Pyrenophora teres, 100%; in the data set on Pyricularia oryzae it was 90%; in the data set on Puccinia recondita, 94%; in the data set on Sphaerotheca fuliginea, 100%; with Uromyces appendiculatus, 100%. Besides, the Eff. % in data set [1] turned out to be 100%; in the data set on Leptosphaeria nodorum, 90%. In data set [2], the logP was 3.87[a].
